Measurements as given in ChEMBL document CHEMBL4007458, “1-ethyl-3-(6-methylphenanthridine-8-il) urea modulates TLR3/9 activation and induces selective pro-inflammatory cytokine expression in vitro” (Bioorg Med Chem Lett, 2017).
Active and inactive are the calls of the source. No cut-off for these calls is given here.

Assays:
[1] = system: PBMC; test: Immunomodulatory activity in human PBMC assessed as induction of IL-6 secretion at 16 uM after 24 hrs by ELISA; format: functional, cell-based
[2] = system: PBMC; test: Immunomodulatory activity in human PBMC assessed as induction of IL-6 secretion at 5 uM after 24 hrs by ELISA; format: functional, cell-based
[3] = Binding affinity to synthetic ODN2006 assessed as ICD band around 301 nm at 3 x 10^5 10^-6mol/dm3 at pH 7 by CD spectroscopic method
[4] = target: T1, Toll-like receptor 9 (Homo sapiens) (UniProt Q9NR96); test: Inhibition of human TLR9 activation expressed in HEK293 cells assessed as reduction in ODN2006-induced NF-kB activation up to 5 uM after 18 hrs by luciferase reporter gene assay; format: cell-based
T1 sequence (whole entry): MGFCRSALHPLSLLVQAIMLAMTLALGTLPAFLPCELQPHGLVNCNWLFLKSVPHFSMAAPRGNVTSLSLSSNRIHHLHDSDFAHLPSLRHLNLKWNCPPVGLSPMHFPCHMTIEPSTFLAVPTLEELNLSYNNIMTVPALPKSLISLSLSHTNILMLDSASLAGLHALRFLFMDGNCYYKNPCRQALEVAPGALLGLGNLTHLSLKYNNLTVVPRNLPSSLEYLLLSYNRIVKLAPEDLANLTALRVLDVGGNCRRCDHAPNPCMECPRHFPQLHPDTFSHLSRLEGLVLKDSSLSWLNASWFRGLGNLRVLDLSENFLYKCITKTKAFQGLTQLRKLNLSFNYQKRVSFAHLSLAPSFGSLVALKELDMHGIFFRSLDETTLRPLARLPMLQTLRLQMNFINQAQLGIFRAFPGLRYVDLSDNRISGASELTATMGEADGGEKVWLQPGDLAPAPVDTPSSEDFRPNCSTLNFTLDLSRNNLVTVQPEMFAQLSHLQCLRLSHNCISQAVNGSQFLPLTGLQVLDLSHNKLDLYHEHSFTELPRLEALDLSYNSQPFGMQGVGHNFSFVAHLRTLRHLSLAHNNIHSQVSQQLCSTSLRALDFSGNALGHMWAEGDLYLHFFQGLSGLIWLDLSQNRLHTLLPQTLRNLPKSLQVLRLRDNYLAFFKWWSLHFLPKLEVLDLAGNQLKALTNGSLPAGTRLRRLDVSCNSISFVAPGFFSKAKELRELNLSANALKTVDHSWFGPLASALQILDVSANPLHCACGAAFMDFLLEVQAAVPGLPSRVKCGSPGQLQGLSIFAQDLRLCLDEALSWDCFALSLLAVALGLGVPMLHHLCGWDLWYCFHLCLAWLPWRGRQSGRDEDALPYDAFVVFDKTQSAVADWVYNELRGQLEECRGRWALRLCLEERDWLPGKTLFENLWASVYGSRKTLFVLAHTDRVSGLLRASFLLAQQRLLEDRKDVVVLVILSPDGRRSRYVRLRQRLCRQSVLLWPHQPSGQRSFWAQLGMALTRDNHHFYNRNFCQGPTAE

[5] = Binding affinity to synthetic ODN2006 assessed as ICD band around 300 nm at 3 x 10^5 10^-6mol/dm3 at pH 5.7 by CD spectroscopic method
[6] = system: PBMC; test: Immunomodulatory activity in human PBMC assessed as induction of IL-6 secretion at 10 uM after 24 hrs by ELISA; format: functional, cell-based
[7] = system: PBMC; test: Immunomodulatory activity in human PBMC assessed as induction of IL-8 secretion after 24 hrs by ELISA; format: functional, cell-based
[8] = system: PBMC; test: Immunomodulatory activity in human PBMC assessed as induction of TNFalpha secretion at 10 uM after 24 hrs by ELISA; format: functional, cell-based
[9] = system: PBMC; test: Immunomodulatory activity in human PBMC assessed as induction of INFalpha secretion at 10 uM after 24 hrs by ELISA; format: functional, cell-based
[10] = system: PBMC; test: Immunomodulatory activity in human PBMC assessed as induction of IL-1beta secretion at 10 uM after 24 hrs by ELISA; format: functional, cell-based
[11] = Binding affinity to synthetic ODN2006 assessed as ratio of fluorescence intensity of compound-ODN complex to fluorescence intensity of compound at 0.01 mol/dm3 at pH 5.7 by fluorescence spectroscopic method
[12] = Binding affinity to synthetic ODN2006 assessed as ratio of fluorescence intensity of compound-ODN complex to fluorescence intensity of compound at 0.01 mol/dm3 at pH 7 by fluorescence spectroscopic method
[13] = Binding affinity to synthetic ODN2006 at 0.01 mol/dm3 at pH 5.7 by fluorescence spectroscopic method
[14] = Binding affinity to synthetic ODN2006 at 0.01 mol/dm3 at pH 7 by fluorescence spectroscopic method
[15] = Binding affinity to synthetic ODN2216 assessed as ratio of fluorescence intensity of compound-ODN complex to fluorescence intensity of compound at 0.01 mol/dm3 at pH 5.7 by fluorescence spectroscopic method
[16] = Binding affinity to synthetic ODN2216 at 0.01 mol/dm3 at pH 5.7 by fluorescence spectroscopic method
[17] = Solubility of the compound in water; format: physicochemical; details: buffer
[18] = target: T2, Toll-like receptor 7 (Homo sapiens) (UniProt Q9NYK1); test: Activation of human TLR7 expressed in HEK293 cells assessed as induction of NF-kB at 0.1 to 5 uM after 18 hrs by luciferase reporter gene assay; format: cell-based
T2 sequence (whole entry): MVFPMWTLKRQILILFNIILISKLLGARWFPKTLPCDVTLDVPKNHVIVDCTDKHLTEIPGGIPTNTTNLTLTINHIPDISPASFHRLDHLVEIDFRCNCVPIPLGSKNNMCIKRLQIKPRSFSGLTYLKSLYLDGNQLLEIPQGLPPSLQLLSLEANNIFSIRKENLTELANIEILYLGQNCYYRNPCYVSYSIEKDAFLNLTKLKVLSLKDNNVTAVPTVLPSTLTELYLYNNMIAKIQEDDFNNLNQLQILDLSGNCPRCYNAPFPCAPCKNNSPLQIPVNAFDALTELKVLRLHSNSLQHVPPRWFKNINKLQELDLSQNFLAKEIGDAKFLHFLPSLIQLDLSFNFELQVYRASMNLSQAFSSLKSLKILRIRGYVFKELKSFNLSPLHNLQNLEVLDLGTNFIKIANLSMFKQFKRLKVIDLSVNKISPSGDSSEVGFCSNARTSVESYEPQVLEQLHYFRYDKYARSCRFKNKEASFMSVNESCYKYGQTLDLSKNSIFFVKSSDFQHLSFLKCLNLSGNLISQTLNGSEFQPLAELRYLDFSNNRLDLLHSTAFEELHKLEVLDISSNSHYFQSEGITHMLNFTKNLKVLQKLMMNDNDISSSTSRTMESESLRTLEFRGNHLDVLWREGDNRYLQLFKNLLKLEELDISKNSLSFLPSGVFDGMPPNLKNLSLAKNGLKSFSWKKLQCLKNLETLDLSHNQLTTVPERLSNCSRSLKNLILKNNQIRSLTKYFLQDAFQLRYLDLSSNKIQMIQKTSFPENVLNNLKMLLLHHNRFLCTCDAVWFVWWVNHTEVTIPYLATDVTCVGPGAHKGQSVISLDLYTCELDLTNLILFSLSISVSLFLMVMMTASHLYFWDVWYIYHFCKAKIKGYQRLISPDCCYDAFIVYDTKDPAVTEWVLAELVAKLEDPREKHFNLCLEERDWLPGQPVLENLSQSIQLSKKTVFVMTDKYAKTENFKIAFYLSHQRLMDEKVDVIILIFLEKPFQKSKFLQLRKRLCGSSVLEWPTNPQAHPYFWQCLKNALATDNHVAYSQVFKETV

[19] = target: T3, Toll-like receptor 8 (Homo sapiens) (UniProt Q9NR97); test: Activation of human TLR8 expressed in HEK293 cells assessed as induction of NF-kB at 0.1 to 5 uM after 18 hrs by luciferase reporter gene assay; format: cell-based
T3 sequence (whole entry): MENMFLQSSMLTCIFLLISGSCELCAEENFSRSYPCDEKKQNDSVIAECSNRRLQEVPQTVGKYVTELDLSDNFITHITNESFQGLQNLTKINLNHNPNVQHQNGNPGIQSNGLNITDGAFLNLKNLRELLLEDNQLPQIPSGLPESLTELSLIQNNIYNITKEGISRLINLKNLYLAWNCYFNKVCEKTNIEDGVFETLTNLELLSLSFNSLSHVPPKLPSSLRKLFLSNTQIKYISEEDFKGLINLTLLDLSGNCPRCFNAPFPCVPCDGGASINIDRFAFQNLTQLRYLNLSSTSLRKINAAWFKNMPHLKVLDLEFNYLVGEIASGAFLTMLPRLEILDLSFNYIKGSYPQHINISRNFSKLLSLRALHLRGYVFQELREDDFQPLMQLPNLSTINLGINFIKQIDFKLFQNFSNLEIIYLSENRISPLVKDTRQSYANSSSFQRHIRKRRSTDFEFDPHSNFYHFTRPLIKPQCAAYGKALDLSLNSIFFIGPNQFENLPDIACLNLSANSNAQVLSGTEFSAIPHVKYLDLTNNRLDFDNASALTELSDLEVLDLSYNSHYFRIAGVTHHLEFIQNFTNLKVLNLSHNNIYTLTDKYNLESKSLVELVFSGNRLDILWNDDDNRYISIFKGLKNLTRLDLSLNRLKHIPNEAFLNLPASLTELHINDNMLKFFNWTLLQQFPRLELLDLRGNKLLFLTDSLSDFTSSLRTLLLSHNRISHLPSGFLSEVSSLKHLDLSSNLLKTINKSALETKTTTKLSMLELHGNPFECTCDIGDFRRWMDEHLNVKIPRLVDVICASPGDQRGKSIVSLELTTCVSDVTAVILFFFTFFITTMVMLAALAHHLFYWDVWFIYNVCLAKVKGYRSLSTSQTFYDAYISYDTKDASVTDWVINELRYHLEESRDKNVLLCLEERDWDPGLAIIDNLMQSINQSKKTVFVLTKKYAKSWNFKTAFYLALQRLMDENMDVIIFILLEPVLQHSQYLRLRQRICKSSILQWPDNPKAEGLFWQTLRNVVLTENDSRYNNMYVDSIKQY

[20] = system: THP-1; test: Cytotoxicity against human THP1 cells assessed as reduction in cell viability up to 10 uM after 24 hrs by MTT assay; format: cell-based; details: thp-1, 24 h
[21] = system: HEK293; test: Cytotoxicity against HEK293 cells assessed as reduction in cell viability up to 10 uM after 24 hrs by MTT assay; format: cell-based; details: human, hek293, 24 h
[22] = system: PBMC; test: Cytotoxicity against human PBMC assessed as reduction in cell viability up to 10 uM after 24 hrs by MTT assay; format: cell-based
[23] = Binding affinity to synthetic ODN2216 assessed as negative ICD band around 240 to 340 nm at 3 x 10^5 10^-6mol/dm3 at pH 5.7 by CD spectroscopic method
[24] = Binding affinity to synthetic ODN2216 assessed as negative ICD band around 240 to 340 nm at 3 x 10^5 10^-6mol/dm3 at pH 7 by CD spectroscopic method
[25] = target: T1, Toll-like receptor 9 (Homo sapiens); test: Inhibition of TLR9 in human PBMC assessed as reduction in ODN2216-stimulated IFNalpha expression at 1 to 10 uM by ELISA
[26] = target: T1, Toll-like receptor 9 (Homo sapiens); test: Inhibition of TLR9 in human PBMC assessed as reduction in ODN2006-stimulated IL-8 expression at 1 to 10 uM by ELISA
[27] = target: Toll-like receptor 3 (Homo sapiens) (UniProt O15455); test: Inhibition of TLR3 in human PBMC assessed as reduction in poly(I:C)-stimulated IL-6 expression at 1 uM by ELISA relative to control
[28] = target: Toll-like receptor 3 (Homo sapiens) (UniProt O15455); test: Inhibition of human TLR3 expressed in HEK293 cells assessed as reduction in poly(I:C)-induced NF-kB activation up to 5 uM after 18 hrs by luciferase reporter gene assay; format: cell-based
[29] = target: T1, Toll-like receptor 9 (Homo sapiens); test: Inhibition of TLR9 in PMA-induc ed human THP1 cells assessed as reduction in ODN2216-induced TNFalpha by ELISA
[30] = target: Toll-like receptor 3 (Homo sapiens) (UniProt O15455); test: Inhibition of TLR3 in human PBMC assessed as reduction in poly(I:C)-stimulated IL-6 expression at 1 to 10 uM by ELISA relative to control
[31] = target: T2, Toll-like receptor 7 (Homo sapiens); test: Activation of human TLR7 expressed in HEK293 cell assessed as induction of NF-kB after 18 hrs by luciferase reporter gene assay; format: cell-based
[32] = target: T3, Toll-like receptor 8 (Homo sapiens); test: Activation of human TLR8 expressed in HEK293 cells assessed as induction of NF-kB after 18 hrs by luciferase reporter gene assay; format: cell-based

Chain of Toll-like receptor 3 (Homo sapiens) (O15455 whole entry): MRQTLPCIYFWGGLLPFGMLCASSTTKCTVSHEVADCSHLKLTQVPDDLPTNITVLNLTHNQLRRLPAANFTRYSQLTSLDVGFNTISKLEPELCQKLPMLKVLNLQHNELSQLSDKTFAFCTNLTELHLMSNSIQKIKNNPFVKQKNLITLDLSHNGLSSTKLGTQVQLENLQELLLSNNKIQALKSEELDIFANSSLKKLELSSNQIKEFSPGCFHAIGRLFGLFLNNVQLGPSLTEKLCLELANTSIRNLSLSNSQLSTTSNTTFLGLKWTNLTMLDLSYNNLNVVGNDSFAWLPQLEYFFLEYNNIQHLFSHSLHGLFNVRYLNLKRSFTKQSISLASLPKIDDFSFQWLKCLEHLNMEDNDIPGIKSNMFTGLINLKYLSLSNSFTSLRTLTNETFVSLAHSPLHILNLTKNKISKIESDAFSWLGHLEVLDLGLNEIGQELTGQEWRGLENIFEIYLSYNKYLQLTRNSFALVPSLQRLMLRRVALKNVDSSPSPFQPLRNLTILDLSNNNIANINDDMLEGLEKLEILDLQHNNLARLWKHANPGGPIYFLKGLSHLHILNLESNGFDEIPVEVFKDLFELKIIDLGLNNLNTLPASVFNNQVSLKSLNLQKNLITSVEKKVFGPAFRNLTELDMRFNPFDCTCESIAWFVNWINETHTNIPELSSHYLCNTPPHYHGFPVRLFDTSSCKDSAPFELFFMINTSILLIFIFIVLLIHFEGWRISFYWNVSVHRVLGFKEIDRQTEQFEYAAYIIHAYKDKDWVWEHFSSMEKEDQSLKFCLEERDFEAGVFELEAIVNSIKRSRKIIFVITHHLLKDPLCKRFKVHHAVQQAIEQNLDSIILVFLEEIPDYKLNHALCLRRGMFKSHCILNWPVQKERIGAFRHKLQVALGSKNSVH

## CCOCc1nc2c(N)nc3ccccc3c2n1CC(C)(C)O
[1]
  Activity: Active

## CC(C)Cn1cnc2c(N)nc3ccccc3c21
[2]
  Activity: Active

## CCNC(=O)Nc1ccc2c(c1)c(C)nc1ccccc12
[3]
  Activity: Active
[4]
  inhibition: Active
[5]
  Activity: inactive
[6]
  Activity: Active
[7]
  Activity: Dose-dependent effect
[8]
  Activity: Active
[9]
  Activity: inactive
[10]
  Activity: inactive
[11]
  Ratio: 0.2
[12]
  Ratio: 0.6
[13]
  log Ks: 4.5
[14]
  log Ks: 5.4
[15]
  Ratio: 0.73
[16]
  log Ks: 4.04
[17]
  solubility: Insoluble
[18]
  Activity: inactive
[19]
  Activity: inactive
[20]
  Activity: Non-Toxic
[21]
  Activity: Non-Toxic
[22]
  Activity: Non-Toxic
[23]
  Activity: Active
[24]
  Activity: Active
[25]
  inhibition: Active
[26]
  inhibition: inactive
[27]
  inhibition: 50%
[28]
  inhibition: Active
[29]
  inhibition: Dose-dependent effect
[30]
  inhibition: Active

## CCOCc1nc2c(N)nc3ccccc3c2[nH]1
[31]
  Activity: Active
[32]
  Activity: Active
